In patent US11267802B2 (BEBETTER MED INC., priority 2015, dated 2022):

Assays:
[1] = Pharmacokinetics in beagles after oral administration; type: in vivo; details: male, beagle, dog, 5 mg/kg, plasma
Protocol: (§1) Male SD rats weighing 250-300 g, or male beagles weighing 9-10 kg, were fasted overnight before the experiment. The object compounds were dissolved in 30% sulfobutylated beta-cyclodextrin (SBE-β-CD), and orally administrated to the rats at a dose of 20 mg/kg or to the beagles at a dose of 5 mg/kg. Blood samples were taken at 15 minutes, 30 minutes, 1 hour, 2 hours, 3 hours, 4 hours, 6 hours, 8 hours and 24 hours after administration. 0.3 ml of blood was collected at every time point, placed in a centrifuge tube containing K2-EDTA (ethylenediamine tetraacetic acid dipotassium) and centrifuged (2,000 g, 10 minutes, 4° C.) to collect plasma, which was then stored in an ultra cold storage freezer at −80° C. 50 μL of plasma sample was mixed with 5 μL of internal standard (IS), and then extracted with ethyl acetate. After vacuum drying, the residue was re-dissolved in acetonitrile. The sample was filtered and injected into LC-MS/MS for analysis.

H1975 = experiment: Inhibition assay on tumor cell proliferation (CellTiter-Glo), H1975; type: cell-based, Human; details: Homo sapiens, NCI-H1975; H1975 (L858R and T790M EGFR double mutation), 72 hours, 10% bovine serum
[2] = Pharmacokinetics in rats after oral administration; type: in vivo, SD rats
Protocol: as §1

H358 = experiment: Inhibition assay on tumor cell proliferation (CellTiter-Glo), H358; type: cell-based, Human; details: Homo sapiens, NCI-H358; H358 (wild-type EGFR), 72 hours, 10% bovine serum
How it was run: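 Viability from ATP content by CellTiter-Glo luminescence; inhibition normalised to DMSO (max) and medium-only (min) wells, IC50 by sigmoidal dose-response fitting. LOVO and H358 carry wild-type EGFR; HCC827 has exon 19 deletion.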

H1975 xenograft tumor = experiment: Potency assay of tumor model, dose-effect relationship, 22 consecutive days; type: in vivo, Balb/C nude mice; details: for Tumor inhibition T/C value (%) / Weight change (%): po, qd
Protocol: Balb/C nude mice were purchased from Beijing Vital River Laboratory Animal Technology Co., Ltd., and housed in SPF animal room. The human non-small-cell lung cancer cell line H1975 in a culture dish was collected by trypsin-EDTA (0.25% trypsin, 1 mM EDTA), and then washed with a serum-free PBS solution. Lastly, the cells were implanted after diluted in a serum-free medium. Only the single cell suspension with a survival rate over 90% (Trypan blue rejection) can be used for injection. 5 million cells suspended in a 0.1 ml serum-free culture were injected into the front right flanking subcutaneous region of each mouse by using a 1 ml syringe and a 25G syringe needle, and the blood vessel was carefully avoided. The tumor size was measured in about one week after implantation. A caliper rule was used to measure the tumor size. The tumor volume was calculated by the following formula: tumor volume=(length×width^2)/2.
Further assay was performed to assess the dose-effect relationship of the inhibition of H1975 transplantation tumor growth by the compounds 51 and 91. […] These compounds were dissolved in 30% sulfobutylated beta-cyclodextrin (SBE-β-CD) and 1N HCl (pH 3-4), respectively. […]

[3] = male, SD, rat, 20 mg/kg, plasma

- AUC(0-inf) [1]: 814 ng·h/mL
- Cmax [1]: 109 ng/mL
- Tmax [1]: 1.67 h
- half-life [1]: 4.37 h
- AUC(0-t) ([1]; read-out: AUC0-24): 786 ng·h/mL
- IC50 (H1975): < 10 nM
- absorption / blood exposure after oral administration (in words) [2]: well absorbed, with high blood exposure
- AUC(0-inf) [2, 3]: 1350 ng·h/mL
- Cmax [2, 3]: 292 ng/mL
- Tmax [2, 3]: 1 h
- half-life [2, 3]: 3 h
- AUC(0-t) ([2]; male, SD, rat, 20 mg/kg, plasma, read-out: AUC0-24): 1340 ng·h/mL
- IC50 (H358): 100 to 1000 nM
- Weight change (%) (H1975 xenograft tumor; 10 mg/kg, 22 consecutive days): 1.6%
- Weight change (%) (H1975 xenograft tumor; 20 mg/kg, 22 consecutive days): 1.2%
- Weight change (%) (H1975 xenograft tumor; 40 mg/kg, 22 consecutive days): −3.5%
SMILES: C=CC(=O)Nc1cc(Nc2nccc(-n3c(=O)n(C(C)C)c4cc(F)ccc43)n2)c(OC)cc1N(C)CCN(C)C [Compound 91, N-(2-((2-(dimethylamino)ethyl)(methyl)amino)-5-(4-(5-fluoro-3-isopropyl-2-oxo-2,3-dihydro-1H-benzo[d]imidazol-1-yl)pyrimidin-2-ylamino)-4-methoxyphenyl)acrylamide]
- Tumor inhibition T/C value (%) (H1975 xenograft tumor; 10 mg/kg, 22 consecutive days): −73%
- Tumor inhibition T/C value (%) (H1975 xenograft tumor; 20 mg/kg, 22 consecutive days): −100%
- Tumor inhibition T/C value (%) (H1975 xenograft tumor; 40 mg/kg, 22 consecutive days): −100%
- tumor outcome (in words) (H1975 xenograft tumor; high dose (40 mg/kg), 22 consecutive days): the tumor disappeared completely
- dose dependence of inhibition of H1975 xenograft tumor growth (in words) (H1975 xenograft tumor; oral, 10, 20 and 40 mg/kg): dose dependently inhibited
